Data: patent publication US6610717B2, “Dihydropyridine derivatives” (Ajinomoto Co., Inc., priority 1999, dated 2003)

Assays:
N-type calcium channel [1] = biological target: T1, N-type calcium channel (Homo sapiens, UniProt Q00975); experiment: Antagonistic activity on N-type calcium channel (fluorescence dye method), IMR-32 cells, in presence of 1 μM Nifedipine; format: cell-based; conditions: Table 2, 60 mM KCl stimulation, fura-2, read-out: N-type inhibition pIC50 (converted)
T1 construct: Human neuroblastoma cells IMR-32 were obtained from ATCC; host or cells: IMR-32 human neuroblastoma cells differentiated with dibutyl cAMP and bromodeoxyuridine
T1 sequence (Q00975 whole entry): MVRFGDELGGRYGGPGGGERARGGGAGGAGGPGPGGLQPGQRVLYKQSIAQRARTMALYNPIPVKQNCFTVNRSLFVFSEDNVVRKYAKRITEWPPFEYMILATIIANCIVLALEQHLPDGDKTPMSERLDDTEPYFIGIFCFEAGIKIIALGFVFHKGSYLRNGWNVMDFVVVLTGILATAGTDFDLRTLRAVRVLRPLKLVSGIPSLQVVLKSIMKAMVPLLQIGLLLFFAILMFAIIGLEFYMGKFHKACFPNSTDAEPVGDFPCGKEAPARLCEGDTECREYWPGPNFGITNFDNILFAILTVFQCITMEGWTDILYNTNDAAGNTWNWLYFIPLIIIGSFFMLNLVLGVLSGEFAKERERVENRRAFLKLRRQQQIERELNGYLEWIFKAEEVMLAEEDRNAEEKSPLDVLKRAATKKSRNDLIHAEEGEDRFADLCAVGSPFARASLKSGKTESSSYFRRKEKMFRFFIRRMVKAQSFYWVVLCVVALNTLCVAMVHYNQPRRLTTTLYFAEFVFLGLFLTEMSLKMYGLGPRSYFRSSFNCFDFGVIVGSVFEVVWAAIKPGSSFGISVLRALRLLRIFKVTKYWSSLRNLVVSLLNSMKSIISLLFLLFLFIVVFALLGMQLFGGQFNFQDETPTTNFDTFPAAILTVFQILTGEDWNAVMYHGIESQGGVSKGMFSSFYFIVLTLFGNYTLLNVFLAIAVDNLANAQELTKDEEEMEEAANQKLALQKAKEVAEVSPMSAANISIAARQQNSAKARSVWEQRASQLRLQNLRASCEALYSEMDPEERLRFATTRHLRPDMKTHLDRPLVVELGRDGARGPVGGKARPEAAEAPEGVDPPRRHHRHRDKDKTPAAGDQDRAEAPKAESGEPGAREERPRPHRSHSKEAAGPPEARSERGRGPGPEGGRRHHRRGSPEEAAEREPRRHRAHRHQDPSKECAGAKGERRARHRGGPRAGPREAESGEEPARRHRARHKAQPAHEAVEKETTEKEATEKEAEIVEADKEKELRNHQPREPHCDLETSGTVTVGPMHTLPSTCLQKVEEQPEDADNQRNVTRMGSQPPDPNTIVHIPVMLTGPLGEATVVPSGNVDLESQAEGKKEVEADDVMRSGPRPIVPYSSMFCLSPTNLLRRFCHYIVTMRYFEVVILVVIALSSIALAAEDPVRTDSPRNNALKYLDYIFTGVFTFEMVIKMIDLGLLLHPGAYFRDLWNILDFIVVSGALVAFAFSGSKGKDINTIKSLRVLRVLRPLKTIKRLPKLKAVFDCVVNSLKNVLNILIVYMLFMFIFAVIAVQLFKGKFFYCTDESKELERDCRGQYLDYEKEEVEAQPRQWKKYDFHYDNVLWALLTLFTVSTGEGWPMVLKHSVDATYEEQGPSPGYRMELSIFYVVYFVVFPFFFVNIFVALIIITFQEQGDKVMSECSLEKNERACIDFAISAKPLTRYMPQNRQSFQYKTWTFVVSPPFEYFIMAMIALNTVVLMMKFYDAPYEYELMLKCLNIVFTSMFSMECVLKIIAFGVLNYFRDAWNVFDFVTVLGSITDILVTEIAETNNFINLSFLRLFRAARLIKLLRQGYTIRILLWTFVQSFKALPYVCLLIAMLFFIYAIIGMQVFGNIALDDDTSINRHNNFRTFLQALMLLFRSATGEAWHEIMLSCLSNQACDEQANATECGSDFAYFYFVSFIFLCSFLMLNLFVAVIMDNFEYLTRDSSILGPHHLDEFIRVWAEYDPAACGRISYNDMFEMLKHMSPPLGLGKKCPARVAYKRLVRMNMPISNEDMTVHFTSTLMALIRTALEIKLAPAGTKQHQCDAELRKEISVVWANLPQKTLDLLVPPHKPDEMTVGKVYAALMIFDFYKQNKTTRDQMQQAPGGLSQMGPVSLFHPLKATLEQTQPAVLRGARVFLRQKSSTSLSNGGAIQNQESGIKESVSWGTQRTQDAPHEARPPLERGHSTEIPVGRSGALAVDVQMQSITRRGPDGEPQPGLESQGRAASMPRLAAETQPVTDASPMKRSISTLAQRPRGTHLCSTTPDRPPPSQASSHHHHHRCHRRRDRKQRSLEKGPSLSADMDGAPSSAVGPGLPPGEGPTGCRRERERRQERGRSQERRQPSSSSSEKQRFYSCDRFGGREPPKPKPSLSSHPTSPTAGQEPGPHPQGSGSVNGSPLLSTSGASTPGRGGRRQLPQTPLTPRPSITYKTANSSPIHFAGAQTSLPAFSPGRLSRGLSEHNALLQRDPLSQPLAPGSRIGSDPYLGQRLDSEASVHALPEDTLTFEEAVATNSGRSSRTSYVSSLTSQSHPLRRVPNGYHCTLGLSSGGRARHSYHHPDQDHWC
T1 sequence (P54289 25-956 partner limits assumed): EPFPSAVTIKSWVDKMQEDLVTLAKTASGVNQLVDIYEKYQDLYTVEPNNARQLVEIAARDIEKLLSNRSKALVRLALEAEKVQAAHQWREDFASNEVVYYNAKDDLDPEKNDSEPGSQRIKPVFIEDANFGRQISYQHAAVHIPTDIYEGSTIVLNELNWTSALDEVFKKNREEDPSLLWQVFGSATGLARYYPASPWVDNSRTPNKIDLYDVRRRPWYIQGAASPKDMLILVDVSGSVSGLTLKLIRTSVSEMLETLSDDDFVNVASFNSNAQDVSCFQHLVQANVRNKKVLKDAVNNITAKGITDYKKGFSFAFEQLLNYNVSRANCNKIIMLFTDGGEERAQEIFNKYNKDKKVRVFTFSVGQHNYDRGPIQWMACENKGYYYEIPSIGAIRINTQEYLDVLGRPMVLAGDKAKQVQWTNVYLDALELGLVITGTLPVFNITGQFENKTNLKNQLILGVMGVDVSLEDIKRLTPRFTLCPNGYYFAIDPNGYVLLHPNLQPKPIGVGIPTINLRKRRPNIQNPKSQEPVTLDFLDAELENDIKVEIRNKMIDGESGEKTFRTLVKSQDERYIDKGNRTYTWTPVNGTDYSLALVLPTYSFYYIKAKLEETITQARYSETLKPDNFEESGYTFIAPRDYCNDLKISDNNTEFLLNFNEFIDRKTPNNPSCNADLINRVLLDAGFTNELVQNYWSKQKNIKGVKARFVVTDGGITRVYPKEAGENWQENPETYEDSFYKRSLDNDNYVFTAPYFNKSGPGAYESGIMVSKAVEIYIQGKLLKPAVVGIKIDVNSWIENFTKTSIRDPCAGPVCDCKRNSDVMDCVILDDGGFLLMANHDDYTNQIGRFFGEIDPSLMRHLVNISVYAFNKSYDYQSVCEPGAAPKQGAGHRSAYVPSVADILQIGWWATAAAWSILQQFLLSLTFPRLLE
T1 sequence (P54289 957-1103 partner limits assumed): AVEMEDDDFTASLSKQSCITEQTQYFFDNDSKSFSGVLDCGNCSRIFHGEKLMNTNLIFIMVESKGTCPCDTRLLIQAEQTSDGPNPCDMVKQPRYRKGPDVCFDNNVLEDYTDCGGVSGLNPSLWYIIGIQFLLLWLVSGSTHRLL
T1 sequence (P54284 whole entry partner): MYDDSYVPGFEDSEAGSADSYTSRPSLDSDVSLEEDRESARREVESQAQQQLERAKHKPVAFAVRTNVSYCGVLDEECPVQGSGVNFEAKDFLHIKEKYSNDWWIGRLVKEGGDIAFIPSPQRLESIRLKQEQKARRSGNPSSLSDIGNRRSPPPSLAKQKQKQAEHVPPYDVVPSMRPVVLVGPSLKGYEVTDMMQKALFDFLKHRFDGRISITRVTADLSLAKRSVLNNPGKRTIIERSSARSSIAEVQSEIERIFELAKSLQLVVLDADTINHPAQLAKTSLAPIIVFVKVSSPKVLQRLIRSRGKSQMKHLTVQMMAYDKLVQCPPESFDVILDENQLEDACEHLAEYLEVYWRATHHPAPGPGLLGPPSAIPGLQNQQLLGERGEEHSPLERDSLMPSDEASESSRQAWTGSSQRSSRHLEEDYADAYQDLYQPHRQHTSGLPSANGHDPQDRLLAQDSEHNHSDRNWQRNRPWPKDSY
Description: Human neuroblastoma cells IMR-32 were obtained from ATCC (American Type Culture Collection). The medium used was a Phenol Red-free Eagle minimum essential medium (GIBCO) containing earle's salts supplement, 2 mM of L-glutamine (GIBCO), 1 mM of sodium pyruvate (pH 6.5) (GIBCO), antibiotic/antimicotic mixture (GIBCO) and 10% fetal calf serum (Cell Culture Technologies). 3 ml of 1×10^5/ml IMR-32 cells were spread on a glass dish (Iwaki Glass Co., Ltd.) having a diameter of 35 mm which was treated with poly-D-lysin (SIGMA) and collagen (COLLAGEN VITROGEN 100, Collagen Colo.). After the culture for 2 days, 1 mM (final concentration) of dibutyl cAMP and 2.5 μM of bromodeoxyuridine (SIGMA) were added. After the culture for additional 10 to 14 days, the cells were subjected to the activity determination. […]
Then the medium was replaced with Phenol Red-free Eagle minimum essential medium (GIBCO) containing earle's salts supplement, from which fura-2/AM had been removed. […] Antagonistic activity on N-type calcium channel was determined and analyzed by using a fluorescence microscope (Nikon Corporation) and an image analysis device ARGUS 50 (Hamamatsu Photonics). […]

N-type calcium channel [2] = biological target: T1, N-type calcium channel; experiment: Antagonistic activity on N-type calcium channel (fluorescence dye method), IMR-32 cells, changed procedure; format: cell-based; conditions: Table 3, 60 mM KCl stimulation, calculated from the inhibition rates, read-out: N-type inhibition pIC50 (converted)
Description: Human neuroblastoma cells IMR-32 were obtained from ATCC (American Type Culture Collection). The medium used was a Phenol Red-free Eagle minimum essential medium (GIBCO) containing earle's salts supplement, 2 mM of L-glutamine (GIBCO), 1 mM of sodium pyruvate (pH 6.5) (GIBCO), antibiotic/antimicotic mixture (GIBCO) and 10% fetal calf serum (Cell Culture Technologies). 3 ml of 1×10^5/ml IMR-32 cells were spread on a glass dish (Iwaki Glass Co., Ltd.) having a diameter of 35 mm which was treated with poly-D-lysin (SIGMA) and collagen (COLLAGEN VITROGEN 100, Collagen Colo.). After the culture for 2 days, 1 mM (final concentration) of dibutyl cAMP and 2.5 μM of bromodeoxyuridine (SIGMA) were added. After the culture for additional 10 to 14 days, the cells were subjected to the activity determination. The medium for IMR-32 cells thus prepared was replaced with 1 ml of Phenol Red-free Eagle minimum essential medium (GIBCO) containing 1 ml of 10 μM fura-2/AM (Dojin Kagaku, Co.) and earle's salts supplement, and the incubation was conducted at 25° C. for 1 hour.
Then the medium was replaced with Phenol Red-free Eagle minimum essential medium (GIBCO) containing earle's salts supplement, from which fura-2/AM had been removed. After the incubation at 37° C. for 1 hour, the medium was replaced with a recording medium (20 mM of HEPES-KOH, 115 mM of NaCl, 5.4 mM of KCl, 0.8 mM of MgCl2, 1.8 mM of CaCl2 and 13.8 mM of D-glucose). Antagonistic activity on N-type calcium channel was determined and analyzed by using a fluorescence microscope (Nikon Corporation) and an image analysis device ARGUS 50 (Hamamatsu Photonics). In particular, a recording medium (20 mM of HEPES-KOH, 115 mM of NaCl, 5.4 mM of KCl, 0.8 mM of MgCl2, 1.8 mM of CaCl2 and 13.8 mM of D-glucose) containing 1 μM of Nifedipine was given to the cells by reflux by a Y-tube method. Then a stimulating agent containing 60 mM of potassium chloride was rapidly given by the Y-tube method. Thereafter stimulating agents containing 60 mM of potassium chloride and 0.1, 1 or 10 μM of test compound were successively rapidly given by the Y-tube method to determine the antagonistic activity on the channel. Finally, a stimulating agent containing 60 mM of potassium chloride and 1 μM of omega conotoxin GVIA (Peptide institute, inc.) was rapidly given by the Y-tube method to realize a condition of 100% inhibition of N-type calcium channel.
The same procedure as that of the above-described tests was repeated except for the following changes: 60 mM of potassium chloride-containing stimulating agent was rapidly given by the Y-tube method while the calcium concentration change in the cells was examined in terms of N-type calcium channel activity. […] A change in calcium concentration in the cells was determined.

SMILES | IC50 (N-type calcium channel [1]) [nM] | IC50 (N-type calcium channel [2]) [nM]
CC1=C(C(=O)O)C(c2cccc(Cl)c2)C(C(=O)NC/C=C/c2ccccc2)=C(COCCc2ccccc2)N1 (stereo not drawn) [Example 3, 4-(3-chlorophenyl)-2-methyl-6-(2-phenylethoxymethyl)-5-(3-phenyl-2-propene-1-ylcarbamoyl)-1,4-dihydro-pyridine-3-carboxylic acid] | 2000 | 2510
CC1=C(C(=O)O)C(c2cccc(Cl)c2)C(C(=O)NC/C=C/c2ccccc2)=C(COCCC2CCCCC2)N1 (stereo not drawn) [Example 4, 4-(3-chlorophenyl)-6-(2-cyclohexylethoxymethyl)-2-methyl-5-(3-phenyl-2-propene-1-ylcarbamoyl)-1,4-dihydropyridine-3-carboxylic acid] | 398 | 794
CC1=C(C(=O)O)C(c2cccc(Cl)c2)C(C(=O)NCCC(c2ccccc2)c2ccccc2)=C(COCCc2ccccn2)N1 (stereo not drawn) [Example 6, 4-(3-chlorophenyl)-5-(3,3-diphenylpropylcarbamoyl)-2-methyl-6-(2-(pyridine-2-yl)ethoxy)methyl-1,4-dihydropyridine-3-carboxylic acid] | – | 2510
COCC1=C(C(=O)OC)C(c2cccc(Cl)c2)C(C(=O)NCCC(c2ccccc2)c2ccccc2)=C(COCCN)N1 (stereo not drawn) [Example 11, Methyl 6-(2-aminoethoxy)methyl-4-(3-chlorophenyl)-5-(3,3-diphenylpropylcarbamoyl)-2-methoxymethyl-1,4-dihydropyridine-3-carboxylate] | – | 2000
